Measured values as given in US7824866B2, “Ligand for G-protein coupled receptor GPR72 and uses thereof” (Euroscreen S.A., priority 2006, dated 2010).
pEC50: −log10 of the molar value. Like-named read-outs stand apart in the source and are kept apart here.

Columns and labels:
Type in all cases: cell-based
human GPR72 [1] = target: T1, human GPR72 (Homo sapiens, UniProt Q9NYM4); experiment: Aequorin-based functional assay: intracellular calcium release (luminescence) in CHO-K1 cells stably expressing human GPR72, mitochondrial apoaequorin and Galpha16; parameters: expressed in transfected cells
human GPR72 [2] = target: T1, human GPR72; experiment: aequorin intracellular calcium release assay, CHO-K1 cells expressing human GPR72; parameters: expressed in transfected cells; host or cells: CHO-K1 cells coexpressing mitochondrial apoaequorin and a G alpha subunit (Gα16); conditions: for activity on GPR72 (structure-activity relationship): human GPR72 receptor, FIG. 8
Procedure: (§1) The aequorin assay takes advantage of the responsiveness of mitochondrial apoaequorin to intracellular calcium release induced by the activation of GPCRs (Stables et al., 1997, Anal. Biochem. 252:115-126; Detheux et al., 2000, J. Exp. Med., 192 1501-1508; both of which are incorporated herein by reference). Briefly, GPR72 polypeptide-expressing clones are transfected to coexpress mitochondrial apoaequorin and Gα16. Cells are incubated with 5 μM Coelenterazine H (Molecular Probes) for 4 hours at room temperature, washed in DMEM-F12 culture medium and resuspended at a concentration of 0.5×10^6 cells/ml. Cells are then mixed with test agonist molecules and light emission by the aequorin is recorded with a luminometer for 30 sec. Results are expressed as Relative Light Units (RLU). Controls include assays using membranes isolated from cells not expressing GPR72 polypeptide (mock transfected), in order to exclude possible non-specific effects of the candidate compound.
GPR72 expressing clones have been obtained by transfection of CHO-K1 cells to coexpressing mitochondrial apoaequorin and […], limiting dilution and selection by RT-PCR. Positive clones were used for biological extract library screening with porcine spleen extracts prepared as described above. A functional assay based on the luminescence of mitochondrial aequorin intracellular Ca^2+ release (Stables et al., 1997, Anal. Biochem. 252:115-126; incorporated herein by reference) was performed as described (Detheux et al., 2000, J. Exp. Med., 192 1501-1508; incorporated herein by reference). Briefly, cells were collected from plates in PBS containing 5 mM EDTA, pelleted and resuspended at 5×10^6 cells/ml in DMEM-F12 medium. Cells were incubated with 5 μM Coelenterazine H (Molecular Probes) for 4 hours at room temperature. Cells were then washed in DMEM-F12 medium and resuspended at a concentration of 0.5×10^6 cells/ml. Cells were then mixed with test agonist peptides or plates containing tissue extracts and the light emission was recorded for 30 sec using a Microlumat luminometer (Perkin Elmer). Results are expressed as Relative Light Units (RLU).
After being identified from active porcine […] fraction, ability of arachidonic acid to trigger intracellular calcium release was tested on CHO-K1 cell lines coexpressing the human or the mouse GPR72 receptor and apoaequorin. We have used the aequorin assay as previously described in Detheux et al. (2000) J exp Med. 192, 1501-1508. […] Arachidonic acid was also able to activate specifically the mouse GPR72 at concentration around 5 micromolar (FIG. 6).
PUFAs were tested on CHO-K1 cells stably expressing the human GPR72 for their ability to trigger intracellular calcium using aequorin. Obtained EC50 are in the 1-20 μM range (FIG. 7).

mouse GPR72 = target: T2, mouse GPR72 (Mus musculus, UniProt P30731); experiment: aequorin intracellular calcium release assay, CHO-K1 cells expressing mouse GPR72; conditions: CHO-K1 cells coexpressing mouse GPR72 and apoaequorin; FIG. 6
T2 construct: expressed in transfected cells; host or cells: CHO-K1 cells coexpressing apoaequorin
Procedure: as §1, with “Controls include assays using membranes isolated from cells not expressing GPR72 polypeptide (mock transfected), in order to exclude possible non-specific effects of the candidate compound.” left out
GPR72 expressing clones have been obtained by transfection of CHO-K1 cells to coexpressing mitochondrial apoaequorin and […], limiting dilution and selection by RT-PCR. […] A functional assay based on the luminescence of mitochondrial aequorin intracellular Ca^2+ release (Stables et al., 1997, Anal. Biochem. 252:115-126; incorporated herein by reference) was performed as described (Detheux et al., 2000, J. Exp. Med., 192 1501-1508; incorporated herein by reference). […] Results are expressed as Relative Light Units (RLU). […]

[3] = Figure 8, SAR of arachidonic acid on human GPR72 activation, CHO-K1 cells, aequorin, read-out: GPR72 EC50
[4] = Figure 9, additional PUFAs, CHO-K1 cells stably expressing human GPR72, aequorin, read-out: human GPR72 receptor EC50
[5] = Figure 10, thiazolidinediones, CHO-K1 cells stably expressing human GPR72, aequorin, read-out: human GPR72 receptor EC50

T1 sequence (Q9NYM4 17-423): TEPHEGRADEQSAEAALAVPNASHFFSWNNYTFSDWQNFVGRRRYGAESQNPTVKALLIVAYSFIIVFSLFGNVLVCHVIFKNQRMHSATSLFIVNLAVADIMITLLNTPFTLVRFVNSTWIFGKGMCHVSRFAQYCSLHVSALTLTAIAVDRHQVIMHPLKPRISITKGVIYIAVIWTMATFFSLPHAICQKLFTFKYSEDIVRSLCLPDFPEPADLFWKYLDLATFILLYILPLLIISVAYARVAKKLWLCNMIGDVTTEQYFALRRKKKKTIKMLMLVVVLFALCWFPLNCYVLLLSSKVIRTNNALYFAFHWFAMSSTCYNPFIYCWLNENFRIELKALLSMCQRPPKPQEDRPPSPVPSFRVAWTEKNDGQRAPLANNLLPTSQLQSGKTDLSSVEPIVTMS
T2 sequence (P30731 18-423): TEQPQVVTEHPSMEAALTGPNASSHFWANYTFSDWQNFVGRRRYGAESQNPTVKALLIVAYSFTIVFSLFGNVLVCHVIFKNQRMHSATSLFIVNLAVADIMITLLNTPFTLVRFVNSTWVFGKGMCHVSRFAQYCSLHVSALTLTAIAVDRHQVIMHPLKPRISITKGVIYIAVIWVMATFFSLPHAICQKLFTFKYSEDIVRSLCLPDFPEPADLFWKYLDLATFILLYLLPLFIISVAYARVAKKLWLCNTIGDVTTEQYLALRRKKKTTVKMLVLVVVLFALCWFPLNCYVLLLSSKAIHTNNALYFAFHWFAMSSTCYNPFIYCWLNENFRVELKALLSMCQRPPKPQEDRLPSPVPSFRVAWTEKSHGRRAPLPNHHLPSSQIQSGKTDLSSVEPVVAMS

**Q.** With `CCCCC/C=C\C/C=C\C/C=C\C/C=C\CCCC(=O)NCCCC(=O)O` [N-arachidonoyl-γ-aminobutyric acid] as the molecule, how does the pEC50 (human GPR72 [1]; [3]) read?
**A.** 5.37

**Q.** How did the pEC50 (human GPR72 [1]) turn out when `CCCCC/C=C\C/C=C\C/C=C\C/C=C\CCCC(=O)NCC(=O)O` [N-arachidonoyl-glycine] was run?
**A.** 5.46

**Q.** What about the “activity on GPR72 (structure-activity relationship)” value (“activity on GPR72” for short) (human GPR72 [2]) of the same molecule?
**A.** active

**Q.** `CCCCC/C=C\C/C=C\CCCCCCCCCC(=O)O` [Eicosa-11Z,14Z-dienoic acid] was tested. Which pEC50 (human GPR72 [1]; [3]) did it give?
**A.** 4.75

**Q.** With `CC/C=C\C/C=C\C/C=C\CCCCCCCC(=O)O` [Octadeca-9Z,12Z,15Z-trienoic acid] as the molecule, how does the pEC50 (human GPR72 [1]) read?
**A.** 5.33

**Q.** How did the pEC50 (human GPR72 [1]; [4]) turn out when `CCCCC/C=C\C/C=C\C/C=C\C/C=C\CCCCCC(=O)O` [Docosa-7Z,10Z,13Z,16Z-tetraenoic acid] was run?
**A.** 5.00

**Q.** With `CC/C=C\C/C=C\C/C=C\C/C=C\C/C=C\CCCC(=O)O` [Eicosa-5Z,8Z,11Z,14Z,17Z-pentaenoic acid] as the molecule, how does the pEC50 (human GPR72 [1]; [3]) read?
**A.** 5.48

**Q.** How did the pEC50 (human GPR72 [1]; [4]) turn out when `CC/C=C\C/C=C\C/C=C\C/C=C\CCCCC(=O)O` [Octadeca-6Z,9Z,12Z,15Z-tetraenoic acid] was run?
**A.** 4.13

**Q.** `CC1=C(/C=C/C(C)=C/C=C/C(C)=C/C(=O)O)C(C)(C)CCC1` [All-trans-retinoic acid] was tested. Which pEC50 (human GPR72 [1]; [3]) did it give?
**A.** 4.07

**Q.** With `CCCCCC#CCC#CCC#CCC#CCCCC(=O)O` [Eicosa-5,8,11,14-tetraynoic acid] as the molecule, how does the pEC50 (human GPR72 [1]; [4]) read?
**A.** 4.57

**Q.** Which “activity on GPR72” value (human GPR72 [2]) does the source give for `CCCCC/C=C\C/C=C\C/C=C\C/C=C\CCCC(=O)OC` [arachidonic acid methyl ester] here?
**A.** not active

**Q.** With `CC/C=C\C/C=C\C/C=C\C/C=C\C/C=C\CCCCCC(=O)O` [Docosa-7Z,10Z,13Z,16Z,19Z-pentaenoic acid] as the molecule, how does the pEC50 (human GPR72 [1]; [3]) read?
**A.** 5.03

**Q.** `CCCCC/C=C\C/C=C\C/C=C\CCCCCCC(=O)O` [Eicosa-8Z,11Z,14Z-trienoic acid] was tested. Which pEC50 (human GPR72 [1]; [3]) did it give?
**A.** 4.36

**Q.** How did the pEC50 (human GPR72 [1]; [4]) turn out when `CCCCCCCCC#CCC#CCC#CCCCC(=O)O` [Eicosa-5,8,11-triynoic acid] was run?
**A.** 4.92

**Q.** `CCCCC/C=C\C/C=C\C/C=C\C/C=C\CCCC(=O)NCC(O)CC(=O)O` (stereo not drawn) [N-arachidonoyl-3-hydroxy-γ-aminobutyric acid] was tested. Which pEC50 (human GPR72 [1]; [3]) did it give?
**A.** 6.15

**Q.** `CCCCC/C=C\C/C=C\C/C=C\C/C=C\CCCC(=O)N[C@@H](C)C(=O)O` [N-arachidonoyl-L-alanine] was tested. Which pEC50 (human GPR72 [1]; [3]) did it give?
**A.** 5.54

**Q.** How did the pEC50 (human GPR72 [1]; [3]) turn out when `CCCCC/C=C\C/C=C\C/C=C\C/C=C\CCCC(=O)N[C@@H](CO)C(=O)O` [N-arachidonoyl-L-serine] was run?
**A.** 5.52

**Q.** With `CC1=C(/C=C/C(C)=C/C=C/C(C)=C\C(=O)O)C(C)(C)CCC1` [13-cis-Retinoic acid] as the molecule, how does the pEC50 (human GPR72 [1]; [4]) read?
**A.** 4.80

**Q.** `CC1(COc2ccc(CC3SC(=O)NC3=O)cc2)CCCCC1` (stereo not drawn) [Ciglitazone] was tested. Which pEC50 (human GPR72 [1]; [5]) did it give?
**A.** 4.46

**Q.** How did the pEC50 (human GPR72 [1]; [3]) turn out when `CCCCCCCC/C=C\C/C=C\C/C=C\CCCC(=O)O` [Eicosa-5Z,8Z,11Z-trienoic acid] was run?
**A.** 5.20

**Q.** With `CCCCC/C=C\C/C=C\C/C=C\C/C=C\CCCC(=O)NCCS(=O)(=O)O` [N-arachidonoyl-L-taurine] as the molecule, how does the pEC50 (human GPR72 [1]; [3]) read?
**A.** 5.89

**Q.** And the “activity on GPR72” value (human GPR72 [2])?
**A.** active

**Q.** How did the pEC50 (human GPR72 [1]) turn out when `CCCCC/C=C\C/C=C\C/C=C\C/C=C\CCCC(=O)O` [Eicosa-5Z,8Z,11Z,14Z-tetraenoic acid] was run?
**A.** 5.30

**Q.** `CC/C=C\C/C=C\C/C=C\C/C=C\CCCCCCC(=O)O` [Eicosa-8Z,11Z,14Z,17Z-tetraenoic acid] was tested. Which pEC50 (human GPR72 [1]; [3]) did it give?
**A.** 5.22

**Q.** What does the source list for `CCCCC/C=C\C/C=C\C/C=C\C/C=C\CCCC(=O)O` [arachidonic acid, 5,8,11,14-all-cis-eicosatetraenoic acid]?
**A.** concentration at which the human GPR72 is specifically activated (human GPR72 [2]; CHO-K1 cells coexpressing human GPR72 and apoaequorin, mock-transfected cells as control, FIG. 5): around 5 micromolar; activity on GPR72 (structure-activity relationship) (human GPR72 [2]): active; concentration at which the mouse GPR72 is specifically activated (mouse GPR72): around 5 micromolar

**Q.** How did the pEC50 (human GPR72 [1]; [4]) turn out when `CC/C=C\C/C=C\C/C=C\CCCCCCCCCC(=O)O` [Eicosa-11Z,14Z,17Z-trienoic acid] was run?
**A.** 4.60

**Q.** How did the pEC50 (human GPR72 [1]; [3]) turn out when `CCCCC/C=C\C/C=C\C/C=C\CCCCC(=O)O` [Octadeca-6Z,9Z,12Z-trienoic acid] was run?
**A.** 6.10

**Q.** How did the pEC50 (human GPR72 [1]; [3]) turn out when `CC/C=C\C/C=C\C/C=C\CCCCCCCCCCCC(=O)O` [Docosa-13Z,16Z,19Z-trienoic acid] was run?
**A.** 4.60

**Q.** With `CC/C=C\C/C=C\C/C=C\C/C=C\C/C=C\C/C=C\CCC(=O)O` [Docosa-4Z,7Z,10Z,13Z,16Z,19Z-hexaenoic acid] as the molecule, how does the pEC50 (human GPR72 [1]; [3]) read?
**A.** 5.70

**Q.** How did the pEC50 (human GPR72 [1]; [3]) turn out when `CC1=C(/C=C/C(C)=C\C=C\C(C)=C\C(=O)O)C(C)(C)CCC1` [9-cis-Retinoic acid] was run?
**A.** 6.40

**Q.** `O=C1NC(=O)C(Cc2ccc3cc(OCc4ccccc4F)ccc3c2)S1` (stereo not drawn) [MCC-555] was tested. Which pEC50 (human GPR72 [1]; [5]) did it give?
**A.** 4.60
